Measurements: patent publication US20080177220A1, “Ultrasound-Mediated Transcleral Drug Delivery” (THE CURATORS OF THE UNIVERSITY OF MISSOURI, priority 2006, published 2008)

How the values were obtained:
[1] = Diffusion of Sodium Fluorescein formulation across Cellu-Por synthetic membrane simulating ocular tissue, with or without ultrasound; assay type: in vitro ADME; conditions: ultrasound applied concurrently during application of the formulation, FIG. 3
Text: The control results 302 display the effect of allowing the formulation to diffuse naturally, while the ultrasound results 304 display the effect of applying ultrasound concurrently during application of the formulation.

[2] = Diffusion of Sodium Fluorescein formulation through RCS tissue in a Franz diffusion cell at different ultrasound standoff distances; assay type: in vitro ADME, New Zealand albino rabbits; conditions: treat far, 1.00±0.01 cm standoff distance, versus 0.50±0.01 cm (treat near) / control without ultrasound, rabbit RCS tissue, FIG. 4
Text: By using a standoff distance 136, drug transport can be optimized. A standoff distance is desired to optimize the cavitation effects in the Fraunhofer zone of the ultrasonic energy field. […] The control results 402 represent normal diffusion action of the formulation in the absence of ultrasound. The treat near results 404 represent diffusion of the formulation achieved using a 0.50±0.01 cm standoff distance. The treat far results 406 represent diffusion of the formulation achieved using a 1.00±0.01 cm standoff distance. […] The optimum standoff distance can vary depending on a number of factors, such as, for example, the coupling media, the transducer configuration, the targeted tissue, and the pharmaceutical formulation being administered. The optimum standoff distance for transcleral drug delivery differs from drug delivery attempted through the cornea due to the numerous factors discussed above, including inherent tissue differences and transport phenomena occurring in the blood-retina barrier.

## O=C([O-])c1ccccc1-c1c2ccc(=O)cc-2oc2cc([O-])ccc12.[Na+].[Na+] [Sodium Fluorescein]
[1]
  permeability with ultrasonic waves versus control (natural diffusion): substantially higher
[2]
  permeability increase using the greater standoff distance: approximately 30 times higher
